In ChEMBL document CHEMBL3526033, “Identification of human liver cytochrome P450 enzymes involved in the metabolism of SCH 530348 (Vorapaxar), a potent oral thrombin protease-activated receptor 1 antagonist” (Drug Metab Dispos, 2011):
One block for each molecule: values may come before it.

Assays:
Assay type in all cases: ADME
Cytochrome P450 2J2 [1] = target: T1, Cytochrome P450 2J2 (Homo sapiens, UniProt P51589); assay: Drug metabolism in human liver microsomes assessed as CYP2J2-mediated (3R,3aS,4S,4aR,7R,8aR,9aR)-7-amino-4-((E)-2-(5-(3-fluorophenyl)pyridin-2-yl)vinyl)-3-methyldecahydronaphtho[2,3-c]furan-1(3H)-one formation at 25 uM after 120 mins by LC-MS/MS analysis; conditions: 2 h
T1 sequence (P51589 whole entry): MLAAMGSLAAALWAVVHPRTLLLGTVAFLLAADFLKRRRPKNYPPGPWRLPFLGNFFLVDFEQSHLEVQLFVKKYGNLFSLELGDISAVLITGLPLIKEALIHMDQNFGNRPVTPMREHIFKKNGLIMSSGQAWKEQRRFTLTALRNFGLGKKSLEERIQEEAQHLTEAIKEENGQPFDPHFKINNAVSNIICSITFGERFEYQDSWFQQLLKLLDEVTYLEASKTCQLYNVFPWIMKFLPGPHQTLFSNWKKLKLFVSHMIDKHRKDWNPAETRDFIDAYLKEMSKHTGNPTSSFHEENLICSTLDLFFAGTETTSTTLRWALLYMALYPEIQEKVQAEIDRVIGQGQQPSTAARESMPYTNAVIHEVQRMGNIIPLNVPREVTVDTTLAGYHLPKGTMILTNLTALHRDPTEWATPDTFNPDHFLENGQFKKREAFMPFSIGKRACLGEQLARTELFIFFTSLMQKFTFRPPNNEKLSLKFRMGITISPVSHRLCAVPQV

Liver microsome = assay: Drug metabolism in human liver microsomes assessed as (3R,3aS,4S,4aR,7R,8aR,9aR)-7-amino-4-((E)-2-(5-(3-fluorophenyl)pyridin-2-yl)vinyl)-3-methyldecahydronaphtho[2,3-c]furan-1(3H)-one formation at 10 to 25 uM after 120 mins by LC-MS/MS analysis in presence of omeprazole; conditions: 2 h
[2] = Drug metabolism in human intestine microsomes assessed as ((4aR,6R)-9-{2-[(1R,4S)-5-((S)-3-Fluoro-phenyl)-pyridin-2-yl]-vinyl}-1-methyl-3-oxo-dodecahydro-naphtho[2,3-c]furan-6-yl)-carbamic acid(R)-2-hydroxy-ethyl ester formation by LC-MS/MS analysis in presence of 100 uM astemizole
Cytochrome P450 3A4 = Cytochrome P450 3A4 (Homo sapiens, UniProt P08684); assay: Activity of human recombinant CYP3A4 assessed as enzyme-mediated ((4aR,6R)-9-{2-[(1R,4S)-5-((S)-3-Fluoro-phenyl)-pyridin-2-yl]-vinyl}-1-methyl-3-oxo-dodecahydro-naphtho[2,3-c]furan-6-yl)-carbamic acid(R)-2-hydroxy-ethyl ester formation at 10 uM after 120 mins by LC-MS/MS analysis in presence of astemizole; conditions: 2 h
Cytochrome P450 2J2 [3] = target: T1, Cytochrome P450 2J2; assay: Activity of human recombinant CYP2J2 assessed as enzyme-mediated 2-hydroxyethyl (1R,3aR,4aR,6R,8aR,9S,9aS)-9-((E)-2-(5-(3-fluorophenyl)pyridin-2-yl)vinyl)-1-methyl-3-oxododecahydronaphtho[2,3-c]furan-6-ylcarbamate formation at 25 uM after 120 mins by LC-MS/MS analysis in presence of NADPH; conditions: 2 h
Cytochrome P450 2B6 = target: T2, Cytochrome P450 2B6 (Homo sapiens, UniProt P20813); assay: Activity of human recombinant CYP2B6 assessed as enzyme-mediated 2-hydroxyethyl (1R,3aR,4aR,6R,8aR,9S,9aS)-9-((E)-2-(5-(3-fluorophenyl)pyridin-2-yl)vinyl)-1-methyl-3-oxododecahydronaphtho[2,3-c]furan-6-ylcarbamate formation at 25 uM after 120 mins by LC-MS/MS analysis in presence of NADPH; conditions: 2 h
T2 sequence (P20813 whole entry): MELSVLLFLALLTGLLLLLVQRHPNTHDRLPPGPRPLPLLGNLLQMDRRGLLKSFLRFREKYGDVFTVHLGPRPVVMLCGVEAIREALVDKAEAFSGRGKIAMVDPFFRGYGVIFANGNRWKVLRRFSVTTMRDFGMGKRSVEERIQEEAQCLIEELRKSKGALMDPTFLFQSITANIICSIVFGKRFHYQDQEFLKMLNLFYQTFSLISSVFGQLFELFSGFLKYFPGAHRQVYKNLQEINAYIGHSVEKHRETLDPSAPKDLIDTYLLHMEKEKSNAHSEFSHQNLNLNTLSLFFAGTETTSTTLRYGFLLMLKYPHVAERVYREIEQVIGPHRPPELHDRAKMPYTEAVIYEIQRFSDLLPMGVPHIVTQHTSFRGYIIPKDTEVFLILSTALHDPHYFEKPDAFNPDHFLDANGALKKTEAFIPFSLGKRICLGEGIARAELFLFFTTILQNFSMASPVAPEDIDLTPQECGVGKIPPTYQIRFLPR

Cytochrome P450 1A2 = target: T3, Cytochrome P450 1A2 (Homo sapiens, UniProt P05177); assay: Activity of human recombinant CYP1A2 assessed as enzyme-mediated 2-hydroxyethyl (1R,3aR,4aR,6R,8aR,9S,9aS)-9-((E)-2-(5-(3-fluorophenyl)pyridin-2-yl)vinyl)-1-methyl-3-oxododecahydronaphtho[2,3-c]furan-6-ylcarbamate formation at 25 uM after 120 mins by LC-MS/MS analysis in presence of NADPH; conditions: 2 h
T3 sequence (P05177 whole entry): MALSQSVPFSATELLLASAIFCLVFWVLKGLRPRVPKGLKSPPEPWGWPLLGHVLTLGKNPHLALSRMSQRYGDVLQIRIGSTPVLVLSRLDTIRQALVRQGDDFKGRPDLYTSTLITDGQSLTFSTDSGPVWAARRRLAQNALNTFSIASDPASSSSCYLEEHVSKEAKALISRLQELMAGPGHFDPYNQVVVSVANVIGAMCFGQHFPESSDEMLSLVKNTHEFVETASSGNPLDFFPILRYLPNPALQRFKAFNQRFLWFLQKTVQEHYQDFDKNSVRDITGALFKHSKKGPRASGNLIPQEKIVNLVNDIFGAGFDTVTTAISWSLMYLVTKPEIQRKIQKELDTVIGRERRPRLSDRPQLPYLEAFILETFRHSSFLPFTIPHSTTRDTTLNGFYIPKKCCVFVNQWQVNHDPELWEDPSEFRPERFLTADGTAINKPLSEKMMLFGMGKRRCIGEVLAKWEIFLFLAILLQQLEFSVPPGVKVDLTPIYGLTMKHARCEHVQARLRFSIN

Cytochrome P450 3A4, sequence (P08684 whole entry): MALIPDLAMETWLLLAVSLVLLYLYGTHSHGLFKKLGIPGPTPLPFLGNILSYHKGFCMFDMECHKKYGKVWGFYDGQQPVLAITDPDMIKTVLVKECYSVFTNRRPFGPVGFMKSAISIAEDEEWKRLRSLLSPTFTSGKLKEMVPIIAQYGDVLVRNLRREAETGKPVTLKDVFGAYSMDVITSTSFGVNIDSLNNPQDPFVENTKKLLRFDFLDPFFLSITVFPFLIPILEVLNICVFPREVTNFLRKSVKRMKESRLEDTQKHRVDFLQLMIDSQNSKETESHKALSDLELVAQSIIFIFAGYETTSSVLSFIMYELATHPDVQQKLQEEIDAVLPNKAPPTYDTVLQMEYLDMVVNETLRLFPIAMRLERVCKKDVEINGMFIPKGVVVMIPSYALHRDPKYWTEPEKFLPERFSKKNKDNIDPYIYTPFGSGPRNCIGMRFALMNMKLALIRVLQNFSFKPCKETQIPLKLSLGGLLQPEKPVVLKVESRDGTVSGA

Drug metabolism (Cytochrome P450 2J2 [1]): metabolite_detected
SMILES: C[C@H]1OC(=O)[C@@H]2C[C@@H]3C[C@H](NC(=O)OCCO)CC[C@H]3[C@H](/C=C/c3ccc(-c4cccc(F)c4)cn3)[C@H]12

Drug metabolism (Liver microsome): metabolite_detected | inhibition (INH) [2]: 77% | inhibition (INH) (Cytochrome P450 3A4): 76%
SMILES: CCOC(=O)N[C@@H]1CC[C@@H]2[C@@H](C1)C[C@H]1C(=O)O[C@H](C)[C@H]1[C@H]2/C=C/c1ccc(-c2cccc(F)c2)cn1 [VORAPAXAR]

Drug metabolism (Cytochrome P450 2J2 [3]): metabolite_detected | Drug metabolism (Cytochrome P450 2B6): metabolite_detected | Drug metabolism (Cytochrome P450 1A2): metabolite_detected
SMILES: CCOC(=O)N[C@@H]1CC[C@@H]2[C@@H](C1)C[C@H]1C(=O)O[C@H](C)[C@H]1[C@H]2/C=[14CH]/c1ccc(-c2cccc(F)c2)cn1
